Test results: patent EP4722208A1, “NOVEL BENZAMIDE DERIVATIVE COMPOUND AND PHARMACEUTICAL COMPOSITION COMPRISING SAME” (Samjin Pharmaceutical Co., Ltd., priority 2023, dated 2024)
pIC50: −log10 of the molar value.

What was measured:
HCT-116 cell lines = assay: Cellular NAD measurement assay (NAD/NADH-Glo Assay); type: cell-based; conditions: Homo sapiens; intracellular NAD+/NADH levels, HCT-116 cells, 24 hours treatment, 0.1 nM to 100 nM
Method: With regard to HCT-116 cell lines, the decrease in intracellular NAD+ and NADH levels due to the inhibition of NAMPT enzyme activity by compounds was evaluated using the product of NAD/NADH-Glo™ Assay (Promega, G9072) from Promega. The cells were incubated using DMEM (Gibco, 11995-065) medium containing 10% FBS. The HCT-116 cells were incubated for 24 hours after being distributed at a density of 2,500 cells per well in a 96-well plate, and were treated with a drug using a serum-free DMEM. First, a compound was dissolved in 100% dimethyl sulfoxide (DMSO), and then diluted in the culture medium so that the final concentration of DMSO might reach 0.5%, and treated with the drug. The final concentration range of the compounds was 0.1 nM to 100 nM. After that, they were further incubated for 24 hours at 37°C and CO2 5%. To conduct the NAD/NADH-Glo™ Assay, the culture medium of drug-treated cells was removed, and 50 µL of DPBS was treated per well, and left at room temperature for five minutes. The required amount of NAD/NADH-Glo™ Detection Reagent (Reconstituted Luciferin Detection Reagent 1 mL, Reductase 5 µL, Reductase Substrate 5 µL, NAD Cycling Enzyme 5 µL, NAD Cycling Substrate 25 µL) was prepared according to the manufacturer's manual and treated in an amount of 50 µL per well. After incubating for two minutes at 400 rpm in a plate shaker for cell lysis, the cells were incubated for 30 minutes at room temperature, and luminescence was measured. NAD+/NADH levels were calculated by subtracting the measurement value of the blank well without cells from the measurement value of all wells and taking the 0.5% DMSO-treated control as 100%.

[1] = molecular target: T1, Recombinant NAMPT protein (Homo sapiens, UniProt P43490); assay: NAMPT enzyme inhibition assay (BPS bioscience NAMPT Inhibitor Screening Assay Kit, fluorescence); type: biochemical; conditions: 30 min pre-incubation, 2 h at 30°C, compound 1000 nM to 3 nM, n=2
T1 construct: purchased BPS bioscience # 7176-1
T1 sequence (P43490 whole entry): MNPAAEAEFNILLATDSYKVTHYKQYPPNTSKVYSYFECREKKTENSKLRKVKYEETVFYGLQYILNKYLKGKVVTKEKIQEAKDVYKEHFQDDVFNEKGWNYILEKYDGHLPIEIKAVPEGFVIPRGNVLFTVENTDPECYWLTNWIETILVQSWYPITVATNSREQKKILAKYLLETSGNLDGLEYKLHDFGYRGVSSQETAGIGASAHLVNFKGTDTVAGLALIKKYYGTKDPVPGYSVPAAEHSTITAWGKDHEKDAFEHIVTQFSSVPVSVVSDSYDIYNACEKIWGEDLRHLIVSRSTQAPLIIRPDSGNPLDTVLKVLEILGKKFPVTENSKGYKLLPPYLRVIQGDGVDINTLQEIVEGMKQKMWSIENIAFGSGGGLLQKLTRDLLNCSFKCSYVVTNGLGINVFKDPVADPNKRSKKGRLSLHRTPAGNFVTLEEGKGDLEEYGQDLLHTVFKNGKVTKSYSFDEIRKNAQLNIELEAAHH
Method: The NAMPT enzyme activity inhibition ability of the compound of the present invention was evaluated using the NAMPT Inhibitor Screening Assay Kit (# 7176-1) from BPS bioscience. Recombinant NAMPT protein was added to each well of a black 96-well plate, and dilution buffer was added to a blank well instead of NAMPT protein. A 5 x concentrated compound solution was added and pre-incubated at room temperature (approximately 22°C) for 30 minutes before the start of the reaction so that the compound and protein might bind before the enzyme reaction. At this time, the concentration of NAMPT protein was adjusted and used according to the enzyme activity of each protein lot within the final concentration range of 4-10 ng/µl, and the test compound was serially diluted at a ratio of 1:3 from 1000 nM to 3 nM, and experiments were conducted with n=2 for about seven concentrations. A 2 x concentrated test buffer containing ATP (final concentration of 20 µM), nicotinamide (final concentration of 20 µM), phosphoribosyl pyrophosphate (PRPP, final concentration of 40 µM), and ethanol (final concentration of 1.5%) was added, and the plate was incubated at 30°C for two hours, after which the fluorescence of a resulting reaction product was measured with excitation of 340 nm and emission of 460 nm. The NAMPT enzyme activity (%) was calculated by subtracting the measurement value of the blank well without NAMPT protein from the measurement value of all wells, and then taking the measurement value of the control well without the compound as 100%.

[2] = tested on: HCT116 colorectal cancer cell lines; assay: Tumor cytotoxicity assay (MTT); type: cell-based; conditions: Homo sapiens, HCT-116, HCT116 cells, 72 hours treatment, 0.1 nM to 1000 nM
Method: The anticancer efficacy of the compound of the present invention was evaluated using the MTT analysis method in HCT116 colorectal cancer cell lines. The cells were incubated using DMEM medium containing 10% FBS. The cells were distributed in a 96-well plate at a density of 2,500 cells per well, the HCT116 cells were incubated for 24 hours, and then treated with a drug using a serum free DMEM. First, a compound was prepared in 100% dimethyl sulfoxide (DMSO) at a concentration of 0.02 µM to 200 µM, diluted in the culture medium so that the final concentration of DMSO might reach 0.5%, and treated with the drug so that the final concentration of the compound might range from 0.1 nM to 1000 nM. After that, they were further incubated for 72 hours at 37°C and CO2 5% and treated with MTT (Sigma-Aldrich, M2128) to confirm cytotoxicity. Formazan produced from reduction by enzymes in the mitochondria of living cells was measured using Spark® Multimode Microplate Reader TECAN equipment. A cell viability (%) was relatively determined by subtracting a reference 650 nm optical density (O.D.) from 570 nm O.D., in which the 0.5% DMSO-treated control was set as a standard of 100%. […]

Compound	pIC50 (HCT-116 cell lines)	pIC50 [1]	CC50 [2] [nM]
Cn1ccc(CS(=O)(=O)c2ccc(C(=O)NCc3ccn4ccnc4c3)cc2C#Cc2cccc(C(=O)N3CCNCC3)c2)n1 [compound 230, N-(imidazo[1,2-a]pyridin-7-ylmethyl)-4-(((1-methyl-1H-pyrazol-3-yl)methyl)sulfonyl)-3-((3-(piperazine-1-carbonyl)phenyl)ethynyl)benzamide]	6.00 to 8.00	> 6.30	100 to 1000
Cn1ccc(CS(=O)(=O)c2ccc(C(=O)NCc3ccn4ccnc4c3)cc2C#Cc2ccc(F)cc2)n1 [compound 2, 3-((4-fluorophenyl)ethynyl)-N-(imidazo[1,2-a]pyridin-7-ylmethyl)-4-(((1-methyl-1H-pyrazol-3-yl)methyl)sulfonyl)benzamide]	≥ 8.00	> 6.30	≤ 30
Cn1ccc(CS(=O)(=O)c2ccc(C(=O)NCCCc3cn[nH]c3)cc2C#Cc2ccc(F)cc2)n1 [compound 1, N-(3-(1H-pyrazol-4-yl)propyl)-3-((4-fluorophenyl)ethynyl)-4-(((1-methyl-1H-pyrazol-3-yl)methyl)sulfonyl)benzamide]	≥ 8.00	> 6.30	≤ 30
Cn1ccc(CS(=O)(=O)c2ccc(C(=O)NCc3ccn4ccnc4c3)cc2C#Cc2ccc(N)cc2)n1 [compound 228, 3-((4-aminophenyl)ethynyl)-N-(imidazo[1,2-a]pyridin-7-ylmethyl)-4-(((1-methyl-1H-pyrazol-3-yl)methyl)sulfonyl)benzamide]	≥ 8.00	> 6.30	≤ 30
Cn1ccc(CS(=O)(=O)c2ccc(C(=O)NCc3ccn4ccnc4c3)cc2C#Cc2cccc(N)c2)n1 [compound 229, 3-((3-aminophenyl)ethynyl)-N-(imidazo[1,2-a]pyridin-7-ylmethyl)-4-(((1-methyl-1H-pyrazol-3-yl)methyl)sulfonyl)benzamide]	≥ 8.00	> 6.30	≤ 30
O=C(NCCCc1cn[nH]c1)c1ccc(S(=O)(=O)Cc2ccn(-c3ccncc3)n2)c(C#Cc2ccc(F)cc2)c1 [compound 10, N-(3-(1H-pyrazol-4-yl)propyl)-3-((4-fluorophenyl)ethynyl)-4-(((1-(pyridin-4-yl)-1H-pyrazol-3-yl)methyl)sulfonyl)benzamide]	≥ 8.00	> 6.30	≤ 30
Nc1ccc(CS(=O)(=O)c2ccc(C(=O)NCc3ccn4ccnc4c3)cc2C#Cc2ccc(F)cc2)cc1 [compound 148, 4-((4-aminobenzyl)sulfonyl)-3-((4-fluorophenyl)ethynyl)-N-(imidazo[1,2-a]pyridin-7-ylmethyl)benzamide]		> 6.30	100 to 1000
